Data from patent US10940188B2, “Compounds and methods for treatment and prevention of Flavivirus infection” (priority 2016, dated 2021).
Where two headings read alike, the source gives them in different places.

System: ZIKV (FSS13025, PRVABC59, MR766) in SNB-19 cells
Assay: Anti-ZIKV activity in SNB-19 cells (NS1 Western blot, NS1 ELISA, immunofluorescence)
Type: cell-based, Zika virus
Details: for anti-ZIKV activity in SNB-19 cells: compound added 1 hour prior to infection; for time-of-addition effect on ZIKV infection / IC50: SNB-19 cells; for time-of-addition effect on ZIKV infection: PRVABC59, added 1 hour before or 4 hours after inoculation; for IC50: all three strains of ZIKV, read-out: IC50 of inhibition of ZIKV (NS1 read-out)
Method: FIGS. 2A-1, 2A-2, 2B-1, 2B-2, 2C-1, 2C-2, 2D-1, 2D-2, 2D-3, 2E-1, 2E-2, and 2F. […] Screening of select compounds for antiviral activity against ZIKV infection was carried out. Glioblastoma SNB-19 cells were treated with indicated compound at 10×AC50 (determined in the primary caspase screen) for 1 hour prior to inoculation with FSS-13025 (at MOI=1). Cells were harvested 24 hours post infection and analyzed by Western blot for ZIKV-NS1 or GAPDH (FIGS. 2A-1 and 2A-2). […] Three strains of virus (FSS-13025, PRVABC59, and MR766; MOI=1) were tested. Shown are sample western blot images (FIG. 2B-1) and ImageJ quantification (FIG. 2B-2). Values represent mean±s.d. (n=3; ***P<0.001; One-way ANOVA). Titration of Emricasan on SNB-19 cells for anti-ZIKV activity was conducted similarly (FIGS. 2C-1 and 2C-2). Values represent mean±s.d. […] Sample western blot (FIG. 2D-2) and ImageJ quantification (FIG. 2D-3) are shown for infection with the PRVABC59 strain (MOI=1). Results for additional strains are shown in FIGS. 6A-F. Values represent mean±s.d. (n=2; **P<0.01; ***P<0.001; One-way ANOVA). […] The concentration of NS1 in the medium of infected SNB-19 cells collected 24 hours post-infection was quantified by a ZIKV-NS1 ELISA kit (FIGS. 2E-1 and 2E-2). Values represent mean±s.d. (n=3; ***P<0.001; One-way ANOVA). […] SNB-19 cells were treated with each indicated compound at increasing concentrations for 1 hour before infection with PRVABC59 at a MOI=0.5 (n=3 cultures). Cell culture supernatant was collected 24 hours after infection, and infectious virions were quantified for focus-forming units (FFU) using Vero cells. Data represent mean±s.d.
FIGS. 3A, 3B, 3C-1, 3C-2, 3C-3, 3C-4, 3C-5, 3D-1, 3D-2, and 3E. […] SNB-19 cells were treated with the indicated compound at 92 μM for one hour prior to infection with FSS13025 or PRVABC59 (MOI=1). Cells were harvested 24 hours post infection and analyzed by western blot for ZIKV-NS1 or GAPDH. Shown are sample images and quantification (FIGS. 3D-1 and 3D-2). Values represent mean±s.d. (n=2; ***P<0.01; One-way ANOVA). Data were normalized to those obtained for DMSO-treated cells. Values represent mean±s.d. *P<0.05; **P<0.01; ***P<0.001; by one-way ANOVA, as compared to DMSO-treated cells.
FIGS. 18A, 18B, 18C-1, 18C-2, 18D, 18E, 18F, 18G-1, and 18G-2. […] 24 hours post infection, supernatants from SNB-19 cells were titrated onto naïve vero cells plated in a monolayer in 96-well plates for infectious focus-forming unit assay as previously described and focus forming units quantified. […] Immunofluorescence (IF) staining (FIG. 18C-1) and quantification (FIG. 18C-2) of ZIKV positive SNB-19 cells following infection with one of three ZIKV strains and treatment with emetine at 0.01, 0.1, or 1 μM. […] Drug was added at 1 μM either 1-hour prior to infection with PRVABC59-ZIKV, or 4-hours post infection with PRVABC59-ZIKV. […] Drug was added at 1 μM either 1-hour prior to infection with PRVABC59-ZIKV, or 4-hours post infection with PRVABC59-ZIKV.
Cells were harvested by trypsinization, pelleting, and subsequent lysis in 1× Laemlli buffer and boiled, or directly lysed in 1× Laemlli buffer and boiled. Antibodies used were anti-ZIKV NS1 (1:2000; BF-1225-36, BioFront Technologies, Tallahassee, Fla.) or GAPDH (Santa Cruz Biotechnology, Texas).

| SMILES | anti-ZIKV activity in SNB-19 cells | time-of-addition effect on ZIKV infection | IC50 | IC50 (Zika virus) |
| --- | --- | --- | --- | --- |
| C[C@H](NC(=O)C(=O)Nc1ccccc1C(C)(C)C)C(=O)N[C@@H](CC(=O)O)C(=O)COc1c(F)c(F)cc(F)c1F [Emricasan] | no significant differences were found | – | – | – |
| CC(=O)Nc1ccc([C@H](C)C(=O)Nc2ncc(C(C)C)s2)cc1 [PHA-690509] | significantly inhibited ZIKV infection in SNB-19 cells | effectively inhibited ZIKV infection when added either 1 hour before or 4 hours after virus inoculation | 12 to 36 µM | – |
| O=C(Nc1ccc([N+](=O)[O-])cc1Cl)c1cc(Cl)ccc1O [Niclosamide] | significantly inhibited ZIKV infection in SNB-19 cells | effectively inhibited ZIKV infection when added either 1 hour before or 4 hours after virus inoculation | – | 0.5 to 2 µM |
| CC[C@H]1CN2CCc3cc(OC)c(OC)cc3[C@@H]2C[C@@H]1C[C@H]1NCCc2cc(OC)c(OC)cc21 [Emetine] | reduces ZIKV infection in a dosage dependent manner | effective against ZIKV infection when added both before or after infection | – | – |
